Test system: Hep G2.2.15 cells
Test: Cell viability by MTT, Hep G2.2.15 cells
Format: cell-based, human
Experimental: The Hep G2.2.15 cells were seeded at 3×10^4 cells/well into 96-well culture plates and incubated at 37° C. in 5% CO2 overnight. After 3 to 4 days, the confluent cultures were cultured at 37° C. for another 3 to 5 days for HBV surface antigen (HBsAg) and HBV e-antigen (HBeAg) induction. Various concentrations of test articles including the positive control substance were then added during the 72 hrs induction period. The cultured media were harvested by centrifugation and the levels of HBsAg and HBeAg were analyzed with commercial enzyme-linked immunosorbant assay (ELISA) kits for HBsAg qualitative testing (General Biologicals Corp., SURASE B-96 (TMB)) and that for HBeAg qualitative testing (General Biologicals Corp., EASE BN-96 (TMB)), respectively. The activity expressed in terms of the efficiency of antigen secretion in percentage (hereinafter referred to as “relative activity”) was calculated with the equation Relative activity (%)=The ratio of the amount of antigen in the cultured medium with treatment to that without treatment×100.
Cell viability was assayed by the MTT method.

CC(C)(C)C(=O)OCOP(=O)(COCCn1cnc2c(N)ncnc21)OCOC(=O)C(C)(C)C [Adefovir, Adefovir dipivoxil]
MTT (+) drug/(−) drug (Ratio), cytotoxicity (0.2 uM): 0.961 | MTT (+) drug/(−) drug (Ratio), cytotoxicity (1 uM): 0.953

Reference: patent publication US9675652B2, “Compositions and methods to relieve chronic diseases symptoms” (priority 2011, dated 2017)
